We go through 26 compounds from US20250230138A1, “COMPOUNDS HAVING A T-STRUCTURE FORMED BY AT LEAST FOUR CYCLES FOR USE IN THE TREATMENT OF CANCER AND OTHER INDICATIONS” (TheRas, Inc., priority 2022, published 2025).

Like-named read-outs stand apart in the source and are kept apart here.

Assay [1] concerns the target Cys242 in human PIK3CA (157-299) (Homo sapiens (Human), UniProt P42336). Put plainly: Covalent modification assay using MALDI-TOF MS. As to conditions: 4 h reaction time point. Format: biochemical. In outline: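 PIK3CA (157-299) at 3.33 μM or 1 μM in 20 mM HEPES, 150 mM NaCl, 2 mM MgCl2, pH 7.3 was incubated with compound (from 10 mM DMSO stocks) in the dark at room temperature for 15 min, 30 min, 2 h or 4 h. Linear-mode MALDI-TOF peak heights gave percent modification.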

For assay [2], the system named is pAKT in BT474 cells. Put plainly: Cell-based pAKT HTRF assay in BT474 cells. As to conditions: BT474 cells, 4 hr incubation, read-out: pAKT inhibition IC50 in BT474 cells. In outline:
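Cells grown in DMEM with 10% FBS were exposed to compounds for 4 hr in 0.25% DMSO, using a 9-point, 3-fold dilution series that starts at 3 μM. Lysates were incubated with d2 and Eu Cryptate antibodies for 4–24 h at room temperature, and HTRF was read at 615 nm emission.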
Background: In TR-FRET formats the signal depends on donor and acceptor labels being close together.

Where [3] appears, read: 1 μM protein target, 1:5 protein to compound ratio (compounds 853-1279).
The mark [4] stands for this setting: 3.33 μM protein target, 1:7.5 protein to compound ratio (compounds 1-852).
Setting [5] is: Homo sapiens, BT-474, Compounds 10-999.

Cys242 in human PIK3CA (157-299), sequence (P42336 157-299): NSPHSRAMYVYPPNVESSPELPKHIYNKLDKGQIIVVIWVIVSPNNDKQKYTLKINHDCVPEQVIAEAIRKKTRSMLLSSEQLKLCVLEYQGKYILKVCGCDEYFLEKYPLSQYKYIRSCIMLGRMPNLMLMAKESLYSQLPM

What is called IC50 is the concentration at which inhibition is half-maximal. Regarding `C=CC(=O)N1CCc2nc(-c3nc(-c4ccc5nncn5c4)c4ccsc4c3-c3c(F)cc(F)cc3OCCOC)sc2C1` [Compound 978], the “% of modification” value in assay [1] (setting [3]) is listed as “A (percent of modification of PIK3CA protein ≥75%)”. The IC50 in assay [2] (Compounds 10-999) is less than 100 nM.
Turning to `C=CC(=O)N1CCn2nc(-c3nc(-c4ccc5c(c4)CN(C)C5=O)c4ccsc4c3-c3c(F)cc(F)cc3OCCO)cc2C1C` (stereo not shown) [Compound 875], in assay [1] (setting [3]), the “% of modification” value is reported as “A (percent of modification of PIK3CA protein ≥75%)”. Further, in assay [2] (Compounds 10-999), the half-inhibitory concentration (IC50) is less than 100 nM.
With `C=CC(=O)N1CC(n2cc(-c3nc(C4=CCN(S(C)(=O)=O)CC4)c4ccsc4c3-c3ccc(F)cc3OC)cn2)C1` [Compound 299], the “% of modification” value in assay [1] (setting [4]) was “A (percent of modification of PIK3CA protein ≥75%)”. For the same compound, the IC50 in assay [2] (Compounds 10-999) fell in the range of 100 to 1000 nM.
Consider `C=CC(=O)N1CCn2nc(-c3nc(-c4ccc5cnn(C)c(=O)c5c4)c4ccsc4c3-c3c(F)cc(F)cc3OCCOC)cc2C1C` (stereo not shown) [Compound 928], for which, in assay [1] (setting [3]), the “% of modification” value is reported as “A (percent of modification of PIK3CA protein ≥75%)”. For the same compound, the IC50 in assay [2] (Compounds 10-999) is less than 100 nM.
As for `C=CC(=O)N1Cc2cc(-c3nc(-c4ccc5c(c4)CNC5=O)c4ccsc4c3-c3c(F)cc(F)cc3OC[C@@H](C)O)nn2C[C@H]1C` [Compound 756], in assay [1] (setting [4]), the “% of modification” value is on record as “A (percent of modification of PIK3CA protein ≥75%)”. Moreover, the half-inhibitory concentration (IC50) in assay [2] (Compounds 10-999) was less than 100 nM.
The like results for `C=CC(=O)N1Cc2cc(-c3nc(-c4ccc5cn(C)nc5c4)c4ccsc4c3-c3c(F)cc(F)cc3OC[C@@H](C)O)nn2C[C@H]1C` [Compound 752] were, in that order, “A (percent of modification of PIK3CA protein ≥75%)” and less than 100 nM.
With `C=CC(=O)N1CCn2nc(-c3nc(-c4ccc5ncn(C)c5c4)c4ccsc4c3-c3c(F)cc(F)cc3OCCOC)cc2[C@@H]1C` [Compound 702], the “% of modification” value in assay [1] (setting [4]) was “A (percent of modification of PIK3CA protein ≥75%)”. For the same compound, the IC50 in assay [2] (Compounds 10-999) was less than 100 nM.
As for `C=CC(=O)N1CCc2ncc(-c3nc(-c4ccc5c(c4)CCNC5)c4ccsc4c3-c3ccc(F)cc3OC)cc2C1` [Compound 86], the “% of modification” value in assay [1] (setting [4]) was “A (percent of modification of PIK3CA protein ≥75%)”. The half-maximal inhibitory concentration (IC50) in assay [2] (Compounds 10-999) is less than 100 nM.
In the case of `C=CC(=O)N1Cc2cc(-c3nc(-c4cnn(C(F)F)c4)c4ccsc4c3-c3c(F)cc(F)cc3OCCOC)nn2CC1C` (stereo not shown) [Compound 772], the “% of modification” value in assay [1] (setting [4]) is “A (percent of modification of PIK3CA protein ≥75%)”. Besides, the concentration for half-maximal inhibition (IC50) in assay [2] (Compounds 10-999) is less than 100 nM.
The like results for `C=CC(=O)N1CC(n2cc(-c3nc(-c4ccc5c(c4)CCNC5)c4ccsc4c3-c3ccc(F)cc3OCCOC)ccc2=O)C1` [Compound 157] were, in that order, “A (percent of modification of PIK3CA protein ≥75%)” and less than 100 nM.
`C=CC(=O)N1CCn2nc(-c3nc(-c4ccc5c(=O)n(C)ncc5c4)c4ccsc4c3-c3c(F)cc(F)cc3OCCOC)cc2C1C` (stereo not shown) [Compound 914]: the “% of modification” value in assay [1] (setting [3]) is “A (percent of modification of PIK3CA protein ≥75%)”. In assay [2] (Compounds 10-999), the half-maximal inhibitory concentration (IC50) was less than 100 nM.
In the case of `C=CC(=O)N1CCn2nc(-c3nc(-c4ccc5c(c4)CNC(=O)C54CC4)c4ccsc4c3-c3c(F)cc(F)cc3OCCO)cc2C1C` (stereo not shown) [Compound 1119], in assay [1] (setting [3]), the “% of modification” value is recorded as “A (percent of modification of PIK3CA protein ≥75%)”. The half-maximal inhibitory concentration (IC50) in assay [2] (Compounds 1000-1279) was less than 100 nM.
Regarding `C=CC(=O)N1CCn2nc(-c3nc(-c4ccc5c(c4)C(=O)NCC5)c4ccsc4c3-c3c(F)cc(F)cc3OCCO)cc2[C@H]1C` [Compound 955], the “% of modification” value in assay [1] (setting [3]) is “A (percent of modification of PIK3CA protein ≥75%)”. For the same compound, the half-maximal inhibitory concentration (IC50) in assay [2] (Compounds 10-999) was less than 100 nM.
In the case of `C=CC(=O)N1CC(n2cc(-c3nc(-c4ccc5c(c4)CCNC5)c4ncsc4c3-c3ccc(F)cc3OC)cn2)C1` [Compound 104, 1-[3-[4-[7-(4-fluoro-2-methoxy-phenyl)-4-(1,2,3,4-tetrahydroisoquinolin-6-yl)thiazolo[4,5-c]pyridin-6-yl]pyrazol-1-yl]azetidin-1-yl]prop-2-en-1-one], the “% of modification” value in assay [1] (setting [4]) was “A (percent of modification of PIK3CA protein ≥75%)”. Besides, the half-maximal inhibitory concentration (IC50) in assay [2] (setting [5]) fell in the range of 100 to 1000 nM.
Regarding `C=CC(=O)N1Cc2cc(-c3nc(-c4ccc5c(c4)CCN(C)C5)c4ccsc4c3-c3c(F)cc(F)cc3OCCO)nn2[C@@H](C)C1` [Compound 564], the “% of modification” value in assay [1] (setting [4]) is “D (percent of modification <25%)”. Further, in assay [2] (Compounds 10-999), the IC50 was in the range of 100 to 1000 nM.
As to `C=CC(=O)N1CC[C@H](n2cc(-c3nc(-c4ccc5c(c4)CCNC5)c4ccsc4c3-c3ccc(F)cc3OCC3CCNC(=O)C3)ccc2=O)C1` (stereo partly shown) [Compound 214], the “% of modification” value in assay [1] (setting [4]) was “A (percent of modification of PIK3CA protein ≥75%)”. In addition, the concentration for half-maximal inhibition (IC50) in assay [2] (Compounds 10-999) lay in the range of 100 to 1000 nM.
For `C=CC(=O)N1CCc2nc(-c3nc(-c4ccc5c(c4)NC(=O)C5)c4ccsc4c3-c3ccc(F)cc3OCCOC)sc2C1` [Compound 163], in that order: “A (percent of modification of PIK3CA protein ≥75%)” and less than 100 nM.
Regarding `C=CC(=O)N1CCn2nc(-c3nc(-c4ccc5c(c4)CCNC5=O)c4ccsc4c3-c3ccc(F)cc3OCCOC)cc2C1` [Compound 189, 6-[7-[4-fluoro-2-(2-methoxyethoxy)phenyl]-6-(5-prop-2-enoyl-6,7-dihydro-4H-pyrazolo[1,5-a]pyrazin-2-yl)thieno[3,2-c]pyridin-4-yl]-3,4-dihydro-2H-isoquinolin-1-one], the “% of modification” value in assay [1] (setting [4]) is “A (percent of modification of PIK3CA protein ≥75%)”. Moreover, the half-maximal inhibitory concentration (IC50) in assay [2] (setting [5]) is less than 100 nM.
As for `C=CC(=O)N1CCc2ccc(-c3nc(-c4ccc5c(c4)CNC(=O)C54CC4)c4ccsc4c3-c3c(F)cc(F)cc3OCCOC)cc2C1` [Compound 1191], in assay [1] (setting [3]), the “% of modification” value is recorded as “A (percent of modification of PIK3CA protein ≥75%)”. Further, the concentration for half-maximal inhibition (IC50) in assay [2] (Compounds 1000-1279) was less than 100 nM.
For the compound `C=CC(=O)N1CCn2nc(-c3nc(-c4cccc(OCCN(C)C)c4)c4ccsc4c3-c3c(F)cc(F)cc3OCCOC)cc2C1C` (stereo not shown) [Compound 1046], in assay [1] (setting [3]), the “% of modification” value is “A (percent of modification of PIK3CA protein ≥75%)”. The IC50 in assay [2] (Compounds 1000-1279) was less than 100 nM.
With `C=CC(=O)N1Cc2cc(-c3nc(-c4ccc5c(c4)CCN(C)C5)c4ccsc4c3-c3c(F)cc(F)cc3OC[C@@H](C)O)nn2[C@@H](C)C1` [Compound 590], the “% of modification” value in assay [1] (setting [4]) is “A (percent of modification of PIK3CA protein ≥75%)”. Besides, in assay [2] (Compounds 10-999), the concentration for half-maximal inhibition (IC50) is less than 100 nM.
In the case of `COCCOc1cc(F)cc(F)c1-c1c(-c2cc3n(n2)CCN(C(=O)C=CCN(C)C)C3C)nc(-c2ccc3c(cnn3C)c2)c2ccsc12` (stereo not shown) [Compound 1232], in assay [1] (setting [3]), the “% of modification” value is on record as “A (percent of modification of PIK3CA protein ≥75%)”. For the same compound, the IC50 in assay [2] (Compounds 1000-1279) is less than 100 nM.
For `C=CC(=O)N1CCn2nc(-c3nc(-c4ccc5c(cnn5C)c4)c4ccsc4c3-c3c(F)cc(F)cc3OC)cc2C1C` (stereo not shown) [Compound 1115], the “% of modification” value in assay [1] (setting [3]) is recorded as “A (percent of modification of PIK3CA protein ≥75%)”. Also, the half-inhibitory concentration (IC50) in assay [2] (Compounds 1000-1279) is less than 100 nM.
For `C=CC(=O)N1CCC(n2cc(-c3nc(-c4cnn5c4CNCC5)c4ccsc4c3-c3ccc(F)cc3OCCOC)cn2)CC1` [Compound 71], in assay [1] (setting [4]), the “% of modification” value is “A (percent of modification of PIK3CA protein ≥75%)”. The 50% inhibitory concentration (IC50) in assay [2] (Compounds 10-999) lay within 100 to 1000 nM.
Regarding `C=CC(=O)N1CCn2nc(-c3nc(-c4ccc5c(c4)CCC5N(C)C)c4ccsc4c3-c3c(F)cc(F)cc3OCCOC)cc2C1C` (stereo not shown) [Compound 1182], in assay [1] (setting [3]), the “% of modification” value is given as “A (percent of modification of PIK3CA protein ≥75%)”. Further, the half-inhibitory concentration (IC50) in assay [2] (Compounds 1000-1279) is less than 100 nM.
For the compound `C=CC(=O)N1CCn2nc(-c3nc(-c4ccc5c(cnn5C)c4)c4ccsc4c3-c3c(F)cc(F)cc3OCCO)cc2C1C` (stereo not shown) [Compound 1156], the “% of modification” value in assay [1] (setting [3]) was “D (percent of modification <25%)”. Moreover, the IC50 in assay [2] (Compounds 1000-1279) is less than 100 nM.
